Assay results published in patent publication US20030203963A1, “Antimicrobial agent” (priority 2001, published 2003).

Columns and labels:
Salm Typhimurium S29 = test: Test in cooked minced chicken slurry; assay type: cell-based, Salmonella Typhimurium; conditions: for Total inhibition for: minced chicken slurry at 8° C., pH 6.42, TCC010704
Method: (§1) 1 kg of minced chicken (mainly lean meat) was purchased from the local butcher. This was mixed with 1 litre of BHI, mixed and dispensed as 100 g samples prior to autoclaving. When still warm, the meat was re-mixed thoroughly. When cooked, the meat was inoculated with 1 ml of 10^5 spores or cells (from an overnight broth), and re-mixed. The samples were then divided into 3×25 g portions, to which 0.5 ml of filter-sterilised APP20010215 was added (as 5% or 10% stock solutions) or water. An initial viable count was taken, and the samples then incubated at 8° C. and tested twice weekly. The pH of the chicken slurry was 6.42.

TAVC = test: Inoculated test in raw meat; assay type: cell-based; conditions: 2000 ppm; inoculated raw meat at 8° C., TRM010620; TAVC 10^6 rising to >10^7 cfu/g
Method: Fresh beef steak was purchased from the local butcher, and minced on clean machinery. The raw meat (ca. pH 6.2) was divided into 8×90 samples and inoculated-with 10^3 cfu/ml of test organisms. The meat was mixed thoroughly using a stomacher. 10 g of SDW or 2% APP (Batch number APP20010215) was added, and the meat was again thoroughly mixed. An initial viable count was taken, the meat was incubated at 8° C., and sampled on the following days using non-selective agar (MPCA) and selective agar: XLD for Salmonella; Oxford selective agar (Listeria monocytogenes); and STAA agar (Brochothrix thermosphacta). The pH of the raw meat was pH 5.3.

B. cereus 204 = test: Test in cooked minced chicken slurry; assay type: cell-based, Bacillus cereus; conditions: 2000 ppm; minced chicken slurry at 8° C., pH 6.42, TCC010704
Method: as §1

Ps. fluorescens 10460 = test: Bioscreen growth inhibition test; assay type: cell-based, Pseudomonas fluorescens; conditions: BS010510, 24 h/30, APP20010213
Method: (§2) For broth cultures and Bioscreen testing most bacteria were grown in Brain Heart Infusion (BHI, Oxoid, pH 7.4). Lactobacillus sake A10 was grown in de Man, Rogosa, Sharpe medium ([…], Oxoid). Yeasts were grown in Sabouraud Liquid medium (SLM, Oxoid). Most bacteria were cultured at 30° C. Lactic acid bacteria were grown on solid medium in enriched CO2 atmosphere. Clostridium species were grown in Reinforced Clostridial Medium (RCM) at 37° C. anaerobically. Brochothrix thermosphacta fungi and yeasts were grown at 25° C. Fungi were cultured on Malt Extract Agar (MEA, Oxoid).
(§3) An automated Microbiology Reader Bioscreen C was used to measure growth curves of the strains in the presence and absence of APP. The Bioscreen C measures the development of turbidity (i.e. growth) kinetically by vertical photometry in 200 wells of a honeycomb microtitre plate, simultaneously. The system consists of a Bioscreen C analyser, which is an incubator and measurement unit, integrated with a PC, software (BioLink v 5.30), printer and a ‘Honeycomb 2’ cuvette multiwell plate. Growth curve data can be analysed within the BioLink software or exported to programs such as Excel.
(§4) Broth culture media were dispensed in 270 μl volumes into the wells as directed. Serial dilutions of a filter-sterilised APP stock solution were then dispensed into the same wells, as appropriate. The wells were inoculated with 30 μl of an appropriately diluted overnight broth culture or spore suspension, to give a final inoculum level of […]. The tests were incubated in the Bioscreen C for either 24 h at 30° C., or 72 h at 25° C. (depending on the micro-organism under investigation) with readings taken every 20 minutes after the trays were shaken. After the incubation period was complete the data were exported to Excel for analysis.

Ps. fluorescens 1331 = test: Bioscreen growth inhibition test; assay type: cell-based, Pseudomonas fluorescens; conditions: BS010510, 24 h/30, APP20010213
Method: as §2, §3, §4

Ps. fluorescens 3756 = test: Bioscreen growth inhibition test; assay type: cell-based, Pseudomonas fluorescens; conditions: BS010411, 24 h/30° C.
Method: as §2, §3, §4

Ps. fluorescens 327 = test: Bioscreen growth inhibition test; assay type: cell-based, Pseudomonas fluorescens; conditions: BS010510, 24 h/30, APP20010213
Method: as §2, §3, §4

Bacillus cereus 204 = test: Well diffusion test; assay type: cell-based; conditions: 20 μl of 49.3 mg/ml (4.9%) APP sample E002012
Method: (§5) Seeded 10 ml agar plates of various test organisms were prepared, with inoculation of either 20 μl spore suspension or overnight broth. This gave an inoculum level of ca. 10^5-10^6 cfu/ml. After the plates had set, small wells were cut, and 20 μl of APP sample was loaded. Plates were incubated overnight at appropriate temperature and examined after 1-2 days (after which microbial growth is clearly visible) for zones of inhibition.

[1] = system: Saccharomyces carlsbergensis CRA6413; test: Well diffusion test; assay type: cell-based; conditions: 20 μl of 49.3 mg/ml (4.9%) APP sample E002012
Method: as §5

[2] = system: Clostridium sporogenes Campden; test: Well diffusion test; assay type: cell-based; conditions: 20 μl of 49.3 mg/ml (4.9%) APP sample E002012
Method: as §5

[3] = system: Saccharomyces cerevisiae ATCC 9763; test: Well diffusion test; assay type: cell-based; conditions: 20 μl of 49.3 mg/ml (4.9%) APP sample E002012
Method: as §5

Lactobacillus sake A10 = test: Well diffusion test; assay type: cell-based; conditions: 20 μl of 49.3 mg/ml (4.9%) APP sample E002012
Method: as §5

[4] = system: Brochothrix thermosphacta CRA7883; test: Well diffusion test; assay type: cell-based; conditions: 20 μl of 49.3 mg/ml (4.9%) APP sample E002012
Method: as §5

Micrococcus luteus = test: Well diffusion test; assay type: cell-based; conditions: 20 μl of 49.3 mg/ml (4.9%) APP sample E002012
Method: as §5

[5] = system: Pseudomonas fluorescens 327; test: Well diffusion test; assay type: cell-based; conditions: 20 μl of 49.3 mg/ml (4.9%) APP sample E002012
Method: as §5

[6] = system: Listeria monocytogenes S23; test: Well diffusion test; assay type: cell-based; conditions: 20 μl of 49.3 mg/ml (4.9%) APP sample E002012
Method: as §5

[7] = cited from earlier work
S. cerevisiae ATCC9763 = test: Test in apple juice; assay type: cell-based, Saccharomyces cerevisiae; conditions: 2000 ppm; apple juice (pH 3.42) at 25° C., TAJ010530
Method: 8.9 ml apple juice samples (pH 3.42) were prepared and autoclaved. Batch number APP20010215 (at 138 mg/ml) was used to prepare filter-sterilised stock solutions for 1 ml addition to the juice to achieve 0, 1000, 2000 ppm APP. Tests were inoculated with 100 μl of an appropriately diluted overnight SLM broth of yeast culture or ascospore suspension of Byssochlamys spores prepared earlier. The tests were incubated at 25° C., and examined daily for signs of growth (e.g. turbidity, mycelium development).

O=C1CC(CO)OC=C1O (stereo not shown) [APP, Ascopyrone P]
Total inhibition for (Salm Typhimurium S29; 1000 ppm): Total inhibition by 1000 ppm for 25 d | Total inhibition for (Salm Typhimurium S29; 2000 ppm): Total inhibition by 2000 ppm for >40 d | Total inhibition (effect on growth of target organism by 2000 ppm APP) (Salm Typhimurium S29; Cooked minced chicken slurry at 8° C. pH 6.42): S. Typhimurium | Effect of APP (TAVC): No significant effect | Effect on growth (B. cereus 204): Partial inhibition by 2000 ppm | APP level causing significant inhibition (Ps. fluorescens 10460): 1000 ppm | APP level causing total inhibition (Ps. fluorescens 10460): 2000 ppm | APP level causing total inhibition (Ps. fluorescens 1331): 1000 ppm | APP level causing significant inhibition (Ps. fluorescens 3756; APP 20010213): 1000 ppm | APP level causing total inhibition (Ps. fluorescens 3756; APP 20010213): 2000 ppm | APP level causing significant inhibition (Ps. fluorescens 3756; APP 20010215): 1000 ppm | APP level causing total inhibition (Ps. fluorescens 3756; APP 20010215): 2000 ppm | APP level causing total inhibition (Ps. fluorescens 327): 1000 ppm | Sensitivity in well diffusion (zones of inhibition) (Bacillus cereus 204): sensitive | Sensitivity in well diffusion (zones of inhibition) [1]: sensitive | Sensitivity in well diffusion (zones of inhibition) [2]: sensitive | Sensitivity in well diffusion (zones of inhibition) [3]: sensitive | Sensitivity in well diffusion (zones of inhibition) (Lactobacillus sake A10): sensitive | Sensitivity in well diffusion (zones of inhibition) [4]: sensitive | Sensitivity in well diffusion (zones of inhibition) (Micrococcus luteus): sensitive | Sensitivity in well diffusion (zones of inhibition) [5]: sensitive | Sensitivity in well diffusion (zones of inhibition) [6]: sensitive | pH at which stable ([7]; less stable at increasing pH): 1.5-5.5 | half-life ([7]; pH 11-12.5): 5 h | Growth controlled for (S. cerevisiae ATCC9763): 1 days
